Results: patent US20250049810A1, “METHODS OF TREATING A RAS PROTEIN-RELATED DISEASE OR DISORDER” (Revolution Medicines, Inc., priority 2023, published 2025)
Read-outs that look alike come from different tables or passages of the source.

Tests used:
[1] = Phase 1/1b study: Compound A pharmacokinetics in patients; type: in vivo, human; conditions: for Tmax / half-life: human, oral, plasma; for Tmax: read-out: median Tmax
Description: (§1) This Example describes the study design of a Phase 1/1b study of Compound A in patients with advanced KRAS^G12C solid tumors with the first patient dosed in September 2022. There are two components in this study: Part 1—Dose Escalation and Part 2—Dose Expansion (FIG. 1). In Part 1—Dose Escalation, an assessment of safety and tolerability are conducted, and the candidate recommended Phase 2 dose and schedule (RP2DS) are determined for further testing in the Dose Expansion Part. Part 2 of the study evaluates the safety and antitumor effects of the candidate RP2DS in KRAS^G12C-mutant solid tumors.
Whole-blood samples were collected from all subjects to measure Compound A concentrations, circulating tumor deoxyribonucleic acid (ctDNA) and other biomarkers. Samples for pharmacodynamic assays collected in Cycle 1 and beyond. Paired pretreatment and on treatment fresh tumor samples collected from any subject if consent is obtained and at the discretion of the treating physician. Optional collection of pre-study treatment fresh biopsy should be performed prior to C1D1 dosing. An optional on-study treatment biopsy may be obtained with subject consent and at the discretion of the treating physician. The primary purpose of the optional on-study treatment biopsies is to assess pharmacodynamic markers and previously acquired pre-study treatment markers of resistance. Biopsy assessment with study intervention treatment over time may also help with better understanding of the shift in mutational profile with study treatment, as well as cellular clonality changes over time. Where tumor tissue allows, predictive biomarkers of response are explored.
Initially Compound A will be administered orally QD for a treatment cycle of 21 days. BID dosing be administered to subjects who are enrolled into Dose level 3 and higher dose levels during escalation as well. For subjects on BID dosing, the second dose of Compound A is administered approximately 10 to 12 hours after the first dose is administered.
(§2) Patients with previously treated, advanced […] solid tumors received escalating doses of Compound A. Doses included 50 mg, 100 mg, and 200 mg once daily (QD) and 100 mg, 200 mg, 300 mg, and 400 mg twice daily (BID). Each cycle had 21 days, with efficacy assessed every 6 weeks. Additional patients were enrolled to backfill cohorts at dose levels that cleared dose-limiting toxicity evaluation to further characterize PK, safety, and anti-tumor activity of Compound A as described in Example 1.

[2] = Phase 1/1b study: safety, treatment-related adverse events; type: in vivo, human
Description: as §1
Safety assessments and procedures were performed. Real-time safety monitoring is performed to ensure that the protocol-specified dose modification guidelines are followed. In addition, C1 safety and available PK and pharmacodynamic data reviewed and evaluated at each Compound A dose level/schedule to determine whether enrollment into the next higher dose-level cohort could proceed. A modified schedule evaluated in which Compound A may be administered more or less frequently than once daily (QD). The totality of the data from dose escalation cohorts is reviewed and one or more candidate RP2DS for expansion in Part 2 can be recommended.
as §2

KRAS^G12C NSCLC = assay: Phase 1/1b study: tumor response per RECIST 1.1 in KRAS G12C NSCLC; type: in vivo, human; conditions: for patients who responded (response rate): all doses
Description: as §1
(§3) Subjects are assessed for response using Response Evaluation Criteria in Solid Tumors (version 1.1) (RECIST [v1.1]). All subjects with previous or current, known or suspected brain metastases must have a magnetic resonance imaging (MRI) of the brain (unless contraindicated) performed within 28 days prior to the first dose of Compound A (C1D1). Disease response for clinical management of subjects were assessed per RECIST (v1.1).
as §2

KRAS^G12C CRC = assay: Phase 1/1b study: tumor response per RECIST 1.1 in KRAS G12C CRC; type: in vivo, human
Description: as §1, §3, §2

[3] = tested on: xenograft models of human KRAS^G12C cancers; assay: Xenograft / preclinical models of KRAS G12C cancers; type: in vivo
[4] = tested on: human cancer cell lines harboring the KRAS^G12C mutation; assay: Growth suppression and apoptosis in KRAS G12C cancer cell lines; type: cell-based; conditions: multiple human cancer cell lines harboring KRAS^G12C
[5] = 47 patients, all doses, as of Aug. 8, 2023
[6] = FIG. 3, CRC naive to KRAS^G12C(OFF) inhibitor, RECIST 1.1

- Tmax ([1]; 13 subjects, data as of May 15, 2023): 1 h
- half-life ([1]; 13 subjects, data as of May 15, 2023, read-out: terminal half-life in the plasma): < 3 h
- Tmax ([1]; patients, data as of Aug. 8, 2023): 1 h
- half-life ([1]; patients, data as of Aug. 8, 2023, read-out: terminal half-life (converted)): 1.8 h
- exposure ([1]; patients, escalating oral doses 50 mg QD to 400 mg BID): dose-dependent exposure
- AUC ([1]; range of 50-200 mg): increased in a dose-dependent manner
- Cmax ([1]; range of 50-200 mg): increased in a dose-dependent manner
- mean accumulation ratio (C1D15 AUC vs C1D1 AUC) ([1]; repeated daily dosing): less than 2 ×
SMILES: CCn1c(-c2cccnc2[C@H](C)OC)c2c3cc(ccc31)N1CCO[C@@H](C[C@H](NC(=O)[C@H](C(C)C)N(C)C(=O)C3(F)CCN(C(=O)C#CC(C)(C)N(C)C)CC3)C(=O)N3CCC[C@H](N3)C(=O)OCC(C)(C)C2)C1 (atropisomer, axis not shown) [Compound A]
- Gr3 TRAE QTc prolongation, number of patients ([2]; 200 mg BID): 1 patients
- Gr3 TRAE QTc prolongation, number of patients ([2]; 300 mg): 1 patients
- Gr3 TRAE QTc prolongation, number of patients ([2]; 400 mg BID): 3 patients
- TRAE QTc prolongation, patients [2, 5]: 21%
- TRAE diarrhea, patients [2, 5]: 30%
- TRAE fatigue, patients [2, 5]: 15%
- TRAE nausea, patients [2, 5]: 34%
- TRAE vomiting, patients [2, 5]: 15%
- Gr3 TRAE QTc prolongation, number of patients ([2]; all doses): 5 patients
- treatment-emergent AE that led to treatment discontinuation ([2]; all doses): No patients
- treatment-related Gr4 or 5 AE ([2]; all doses): No patients
- treatment-related ≥Gr3 hepatotoxicity ([2]; all doses): No treatment-related ≥Gr3 hepatotoxicity was observed
- patients with average QTc interval >501 ms ([2]; out of the 5 patients with Gr3 QTc prolongation): one
- confirmed PR, number of patients (KRAS^G12C NSCLC; FIG. 2, NSCLC, RECIST 1.1): 5
- unconfirmed PR, number of patients (KRAS^G12C NSCLC; FIG. 2, NSCLC, RECIST 1.1): 3
- disease control rate (KRAS^G12C NSCLC; NSCLC, both sets of patients (G12C(OFF) inhibitor naive and pretreated)): 100%
- patients who responded (response rate) (KRAS^G12C NSCLC; NSCLC, not previously treated with G12C(OFF) inhibitor, three of seven, as of Oct. 5, 2023): 43%
- patients who responded (response rate) (KRAS^G12C NSCLC; NSCLC, previously treated with G12C(OFF) inhibitor, 5 of 10, as of Oct. 5, 2023): 50%
- disease control rate (KRAS^G12C CRC; CRC, not previously treated with G12C(OFF) inhibitor): 80%
- patients with partial response (KRAS^G12C CRC; CRC, not previously treated with G12C(OFF) inhibitor, 8 of 20, as of Oct. 5, 2023): 40%
- confirmed PR, number of patients (KRAS^G12C CRC; [6]): 5
- unconfirmed PR, number of patients (KRAS^G12C CRC; [6]): 3
- response in preclinical models compared to adagrasib ([3]; compared to the KRAS^G12C(OFF) inhibitor adagrasib): superior response rate, deeper regressions and longer duration of response
- anti-tumor activity in vivo ([3]; multiple xenograft models of human KRAS^G12C cancers): dose-dependent and durable tumor regressions
- effect on cancer cell lines in vitro [4]: growth suppression and apoptosis
